Data taken from US11414379B2, “SPAK kinase inhibitors as neuroprotective agents” (United States Government as represented by the Department …, priority 2018, dated 2022).

What was measured:
GST-[T233E]SPAK kinase = target: T1, GST-[T233E]SPAK kinase (Homo sapiens, UniProt Q9UEW8, T231E); test: SPAK kinase assay employing CATCHtide; assay type: biochemical; settings: SPAK activity at different ATP concentrations
T1 construct: made in house; host or cells: E. coli
Method: SPAK kinase assays employing CATCHtide (cation chloride co-transporter peptide substrate). Peptide kinase assays, performed in triplicate, were set up in a total volume of 50 μl containing 0.5 μg GST-[T233E]SPAK kinase (˜5 nM at ˜10% purity) in 50 mM Tris/HCl, pH 7.5, 0.1 mM EGTA, 10 mM MgCl2, 300 μM CATCHtide ([…]; SEQ ID NO:1), […] [γ-32P]ATP (˜500 cpm/pmol) and the indicated concentrations of inhibitor dissolved in DMSO. After incubation for 30 min at 30° C., reactions were terminated by spotting 40 μl of the reaction mix onto P81 phosphocellulose paper and immersion in 50 mM phosphoric acid. The papers were washed extensively and the incorporation of [γ-^32P]ATP into CATCHtide was quantified by Cerenkov counting. IC^50 values were calculated with GraphPad Prism using non-linear regression analysis.
Referring to FIG. 7A, the activation of SPAK kinase by MO25α is shown. SPAK was assayed in the absence or presence of five-fold molar excess of wild-type MO25α.
Referring to FIG. 7B, kinetic data was determined for ZT-1a in the absence or presence of five-fold molar excess of wild-type MO25α. Data points are the average of three determinations, and the error bars are +/−SEM.

KCC2 pThr1007 = test: Phosphorylation immunoblot in KCC2-transfected HEK293 cells; assay type: cell-based, human; set-up: key: “—” showed no inhibition of phosphorylation of SPAK/NKCC1/KC22; settings: concentration inhibiting phosphorylation; for KCC2 pThr1007 (μM) hypo: hypotonic low Cl- conditions; for KCC2 pThr1007 (μM) Iso: isotonic conditions
Method: (§1) HEK293 (human embryonic kidney 293) cells were cultured on 10-cm-diameter dishes in DMEM supplemented with 10% (v/v) foetal bovine serum, 2 mM L-glutamine, 100 U/ml penicillin and 0.1 mg/ml streptomycin. HEK293 cells were transfected with a mixture of 20 μl of 1 mg/ml polyethylenimine (Polysciences) and 5-10 μg of plasmid DNA as described previously (Durocher et al., 2002). 36 hours post-transfection cells were stimulated with either control isotonic or hypotonic medium for a period of 30 minutes. Cells were lysed in 0.3 mL of ice-cold lysis buffer/dish, lysates were clarified by centrifugation at 4° C. for 15 minutes at 26,000 g and the supernatant aliquots were frozen in liquid nitrogen and stored at −20° C. Protein concentrations were determined using the Bradford method. Cells were treated with the indicated concentrations of the SPAK/OSR1 inhibitors. […] Hypotonic low chloride buffer was 67.5 mM sodium-gluconate, 2.5 mM potassium-gluconate, 0.25 mM CaCl2), 0.25 mM MgCl2, 0.5 mM Na2HPO4, 0.5 mM Na2SO4 and 7.5 mM HEPES (pH 7.5).
(§2) The membranes were incubated for 30 min with TBST (Tris-buffered saline, 0.05% Tween-20) containing 5% (w/v) skim milk. The blots were then washed six times with TBST and incubated for 1 hour at room temperature with secondary HRP-conjugated antibodies diluted 5000-fold in 5% (w/v) skim milk in TBST. After repeating the washing steps, signals were detected with enhanced chemiluminescence reagent. Immunoblots were developed using a film automatic processor (SRX-101; Konica Minolta Medical) and films were scanned at 600 dpi (PowerLook 1000; UMAX). Figures were generated using Photoshop/Illustrator (Adobe). The densities of bands were measured with ImageJ. For phospho-antibody immunoprecipitation, KCC isoforms were immunoprecipitated from indicated cell extracts. 2 mg of the indicated clarified cell extract were mixed with 15 μg of the indicated phospho-specific KCC antibody conjugated to 15 μl of protein-G-Sepharose, in the added presence of […] of the dephosphorylated form of the phosphopeptide antigen, and incubated 2 hours at 4° C. with gentle shaking. Immunoprecipitates were washed three times with 1 mL of lysis buffer containing 0.15 M NaCl and twice with 1 ml of buffer A. Bound proteins were eluted with 1×LDS sample buffer.
(§3) HEK293 cells were transfected with a DNA construct encoding wild type N-terminally FLAG-tagged KCC2. 36 hrs post-transfection, cells were exposed 30 min to either control isotonic or hypotonic low [C1^−] conditions, then treated in the same conditions for an additional 30 min with the indicated inhibitors at the concentrations noted. Cell lysates were subjected to SDS-PAGE and Western blotting with the indicated antibodies. See FIG. 3 for Western blot quantitation.
(§4) Referring to FIG. 2, concentration-response experiments testing effects of Closantel analogs on phosphorylation of KCC2 Thr906/Thr1007 are shown. HEK293 cells were transfected with DNA construct encoding wild type N-terminally FLAG-tagged KCC2. 36 h post-transfection, cells were exposed 30 min to either control isotonic conditions or hypotonic low Cl^− conditions, then treated in the same conditions with the specified inhibitors (1b, 1c, 1f, 1d, 1h, and 1g, respectively) at the indicated concentrations for an additional 30 min. Lysates were subjected to SDS-PAGE and Western blotting with the indicated antibodies.
(§5) Referring to FIG. 3, HEK293 cells were transfected with the DNA construct encoding wild type N-terminally FLAG-tagged KCC2. 36 h post-transfection, cells were exposed 30 min to either control isotonic or hypotonic low Cl^− conditions, then treated in the same conditions with the specified inhibitors at the indicated concen-trations for an additional 30 min. Lysates were subjected to SDS-PAGE and Western blotting with the indicated antibodies. Closantel, STOCK1S-14279 and STOCK1S-50699 were used as reference compounds.

SPAK pSer373 = test: as above; assay type: cell-based, human; set-up: key: “—” showed no inhibition of phosphorylation of SPAK/NKCC1/KC22; settings: concentration inhibiting phosphorylation; for SPAK pSer373 (μM) hypo: hypotonic low Cl- conditions; for SPAK pSer373 (μM) Iso: isotonic conditions
Method: as §1, §2, §3, §4, §5

KCC2 pThr906 = test: as above; assay type: cell-based, human; set-up: key: “—” showed no inhibition of phosphorylation of SPAK/NKCC1/KC22; settings: concentration inhibiting phosphorylation; for KCC2 pThr906 (μM) hypo: hypotonic low Cl- conditions; for KCC2 pThr906 (μM) Iso: isotonic conditions
Method: as §1, §2, §3, §4, §5

NKCC1 pThr203 = test: as above; assay type: cell-based, human; set-up: key to NKCC1 pThr203 (μM) Iso / NKCC1 pThr203 (μM) hypo: “—” showed no inhibition of phosphorylation of SPAK/NKCC1/KC22; settings: concentration inhibiting phosphorylation; for NKCC1 pThr203 (μM) hypo: hypotonic low Cl- conditions; for NKCC1 pThr203 (μM) Iso: isotonic conditions
Method: as §1, §2, §3, §4, §5

Compound	change of IC50 values with increasing ATP concentrations (GST-[T233E]SPAK kinase)	KCC2 pThr1007 (μM) hypo (KCC2 pThr1007)	KCC2 pThr1007 (μM) Iso (KCC2 pThr1007)	SPAK pSer373 (μM) hypo (SPAK pSer373)	SPAK pSer373 (μM) Iso (SPAK pSer373)	KCC2 pThr906 (μM) hypo (KCC2 pThr906)	KCC2 pThr906 (μM) Iso (KCC2 pThr906)	NKCC1 pThr203 (μM) hypo (NKCC1 pThr203)	NKCC1 pThr203 (μM) Iso (NKCC1 pThr203)
CN[C@@H]1C[C@H]2O[C@@](C)([C@@H]1OC)n1c3ccccc3c3c4c(c5c6ccccc6n2c5c31)C(=O)NC4 [staurosporine, reference compound]	increased in a dose-proportional manner								
Cc1cc(C(C#N)c2ccc(Cl)cc2)c(Cl)cc1NC(=O)c1ccccc1O (stereo not shown) [Compound 1b, N-(5-chloro-4-((4-chlorophenyl)(cyano)methyl)-2-methylphenyl)-2-hydroxy-benzamide]		3, 3 μM	3, 3 μM	3, 3 μM	3, 3 μM	10, 10 μM	10, 10 μM	1 μM	3 μM
Cc1cc(C(C#N)c2ccc(Cl)cc2)c(Cl)cc1NC(=O)c1ccccc1N (stereo not shown) [Compound 1d, 2-amino-n-(5-chloro-4-((4-chlorophenyl)(cyano)methyl)-2-methylphenyl)-benzamide]		3, 3 μM	3, 3 μM	3, 3 μM	3, 3 μM	10, 10 μM	10, 10 μM	3 μM	1 μM
Cc1cc(C(C#N)c2ccc(Cl)cc2)c(Cl)cc1NC(=O)c1ccccc1S (stereo not shown) [Compound 1c, N-(5-chloro-4-((4-chlorophenyl)(cyano)methyl)-2-methylphenyl)-2-mercapto-benzamide]		3, 3 μM	3, 3 μM	3, 3 μM	3, 3 μM	10, 10 μM	10, 10 μM	3 μM	1 μM
COc1ccc(Cl)cc1C(=O)Nc1cc(Cl)c(C(C#N)c2ccc(Cl)cc2)cc1C (stereo not shown) [Compound 1j]		—	—	—	—	—	—	—	—
Cc1cc(C(C#N)c2ccc(Cl)cc2)c(Cl)cc1NC(=O)c1cccc(F)c1O (stereo not shown) [Compound 1h, N-(5-chloro-4-((4-chlorophenyl)(cyano)methyl)-2-methylphenyl)-3-fluoro-2-hydroxy-benzamide]		3, 3 μM	3, 3 μM	3, 3 μM	3, 3 μM	10, 10 μM	10, 10 μM	3 μM	1 μM
Cc1cc(C(C#N)c2ccc(Cl)cc2)c(Cl)cc1NC(=O)c1cc(Cl)cc(Cl)c1O (stereo not shown) [Compound 1f, 3,5-dichloro-n-(5-chloro-4-((4-chlorophenyl)(cyano)methyl)-2-methylphenyl)-2-hydroxy-benzamide]		3, 3 μM	3, 3 μM	3, 3 μM	3, 3 μM	10, 10 μM	10, 10 μM	3 μM	1 μM
Cc1cc(C(C#N)c2ccc(Cl)cc2)c(Cl)cc1NC(=O)c1cccc(O)c1O (stereo not shown) [Compound 1i, N-(5-chloro-4-((4-chlorophenyl)(cyano)methyl)-2-methylphenyl)-2,3-dihydroxy-benzamide]		—	—	—	—	—	—	—	—
Cc1cc(C(C#N)c2ccc(Cl)cc2)c(Cl)cc1NC(=O)c1cc(F)ccc1O (stereo not shown) [Compound 1g]		3, 3 μM	3, 3 μM	3, 3 μM	3, 3 μM	10, 10 μM	10, 10 μM	3 μM	1 μM
Cc1cc(C(C#N)c2ccc(Cl)cc2)c(Cl)cc1NC(=O)c1ccccc1[N+](=O)[O-] (stereo not shown) [Compound 1e, N-(5-chloro-4-((4-chlorophenyl)(cyano)methyl)-2-methylphenyl)-2-nitrobenzamide]		—	—	—	—	—	—	—	—
